Reference: ChEMBL document CHEMBL4507311, “Data for DCP probe A-1155463” (2021)
The source made the active and inactive calls. No cut-off for these calls is given here.

What was measured:
[1] = molecular target: cGMP-inhibited 3',5'-cyclic phosphodiesterase 3A (Homo sapiens) (UniProt Q14432); experiment: PDE3A (h) Eurofins-Cerep enzyme and uptake assay; details: Compound concentration 10.0 uM
[2] = molecular target: Neuropeptide Y receptor type 1 (Homo sapiens) (UniProt P25929); experiment: Y1 (h) Eurofins-Cerep binding assay; design: ligand concentration 0.025 nM; details: filed as agonist, Compound concentration 10.0 uM
[3] = molecular target: Androgen receptor (Homo sapiens) (UniProt P10275); experiment: AR (h) Eurofins-Cerep binding assay; design: ligand concentration 1 nM; details: filed as agonist, Compound concentration 10.0 uM
[4] = molecular target: P2X receptor (Rattus norvegicus) (UniProt P51579+P49653+P51578+Q64663+P47824+P51577+P49654); experiment: P2X Eurofins-Cerep binding assay; assay type: protein assay; design: ligand concentration 3 nM; details: filed as agonist, Compound concentration 10.0 uM
[5] = molecular target: Kappa-type opioid receptor (Homo sapiens) (UniProt P41145); experiment: kappa (h) (KOP) Eurofins-Cerep binding assay; design: ligand concentration 0.5 nM; details: filed as agonist, Compound concentration 10.0 uM
[6] = molecular target: D(2) dopamine receptor (Homo sapiens) (UniProt P14416); experiment: D2S (h) Eurofins-Cerep binding assay; design: ligand concentration 0.3 nM; details: filed as antagonist, Compound concentration 10.0 uM
[7] = molecular target: Prostaglandin E2 receptor EP2 subtype (Homo sapiens) (UniProt P43116); experiment: EP2 (h) Eurofins-Cerep binding assay; design: ligand concentration 3 nM; details: filed as agonist, Compound concentration 10.0 uM
[8] = molecular target: L-type Ca2+ channel (dihydropyridine site) (Rattus norvegicus, UniProt P22002+P27732+Q02485); experiment: Ca2+ channel (L, dihydropyridine site) Eurofins-Cerep binding assay; assay type: protein assay; design: incubation time 90 min, incubation temperature RT, ligand concentration 0.1 nM; details: rat cerebral cortex, probe [3H]nitrendipine (0.1 nM), compound concentration 10 uM, read-out: % Inhibition of Control Specific Binding (Mean n=2)
Bcl-2-like protein 1 = Bcl-2-like protein 1 (Homo sapiens, UniProt Q07817); experiment: Time-resolved fluorescence energy transfer (TR-FRET) with BCL2L1
[9] = molecular target: Histamine H1 receptor (Homo sapiens) (UniProt P35367); experiment: H1 (h) Eurofins-Cerep binding assay; design: ligand concentration 1 nM; details: filed as antagonist, Compound concentration 10.0 uM
[10] = molecular target: Sodium/potassium-transporting ATPase (Sus scrofa) (UniProt P05027+P05024+D2WKD8+D2WKD7+F1ST41); experiment: ATPase (Na+/K+) Eurofins-Cerep enzyme and uptake assay; assay type: protein-complex assay; details: Compound concentration 10.0 uM
[11] = molecular target: Glutamate NMDA receptor (Rattus norvegicus) (UniProt P35439+Q00959+Q00960+Q00961+Q62645+Q8VHN2+Q9R1M7); experiment: PCP Eurofins-Cerep binding assay; assay type: protein-complex assay; design: ligand concentration 10 nM; details: filed as antagonist, Compound concentration 10.0 uM
[12] = molecular target: Peroxisome proliferator-activated receptor gamma (Homo sapiens) (UniProt P37231); experiment: PPARgamma (h) Eurofins-Cerep binding assay; design: ligand concentration 5 nM; details: filed as agonist, Compound concentration 10.0 uM
[13] = molecular target: Angiotensin-converting enzyme (Homo sapiens) (UniProt P12821); experiment: ACE (h) Eurofins-Cerep enzyme and uptake assay; details: Compound concentration 10.0 uM
[14] = molecular target: Mu-type opioid receptor (Homo sapiens) (UniProt P35372); experiment: mu (MOP) (h) Eurofins-Cerep binding assay; design: ligand concentration 0.5 nM; details: filed as agonist, Compound concentration 10.0 uM
[15] = molecular target: Muscarinic acetylcholine receptor M1 (Homo sapiens) (UniProt P11229); experiment: M1 (h) Eurofins-Cerep binding assay; design: ligand concentration 2 nM; details: filed as antagonist, Compound concentration 10.0 uM
[16] = molecular target: 5-hydroxytryptamine receptor 7 (Homo sapiens) (UniProt P34969); experiment: 5-HT7 (h) Eurofins-Cerep binding assay; design: ligand concentration 4 nM; details: filed as agonist, Compound concentration 10.0 uM
[17] = molecular target: Beta-1 adrenergic receptor (Homo sapiens) (UniProt P08588); experiment: Beta1 (h) Eurofins-Cerep binding assay; design: ligand concentration 0.3 nM; details: filed as agonist, Compound concentration 10.0 uM
[18] = molecular target: 5-hydroxytryptamine receptor 4 (Homo sapiens) (UniProt Q13639); experiment: 5-HT4 e (h) Eurofins-Cerep binding assay; design: ligand concentration 0.3 nM; details: filed as antagonist, Compound concentration 10.0 uM
[19] = molecular target: Vasoactive intestinal polypeptide receptor 1 (Homo sapiens) (UniProt P32241); experiment: VPAC1 (VIP1) (h) Eurofins-Cerep binding assay; design: ligand concentration 0.04 nM; details: filed as agonist, Compound concentration 10.0 uM
[20] = molecular target: MAO-A (amine oxidase [flavin-containing] A) (Rattus norvegicus, UniProt P21396); experiment: MAO-A Eurofins-Cerep binding assay; design: incubation time 60 min, incubation temperature 37°C, ligand concentration 10 nM; details: rat cerebral cortex, probe [3H]Ro 41-1049 (10 nM), compound concentration 10 uM, read-out: % Inhibition of Control Specific Binding (Mean n=2)
[21] = molecular target: voltage-gated Na+ channel (site 2) (Rattus norvegicus, UniProt F1LQQ7+O08562+O88420+O88457+P04774+P04775+P08104+P15389+P15390+Q62968); experiment: Na+ channel (site 2) Eurofins-Cerep binding assay; assay type: protein assay; design: incubation time 60 min, incubation temperature 37°C, ligand concentration 10 nM; details: rat cerebral cortex, probe [3H]batrachotoxin (10 nM), compound concentration 10 uM, read-out: % Inhibition of Control Specific Binding (Mean n=2)
[22] = molecular target: Prostaglandin G/H synthase 2 (Homo sapiens) (UniProt P35354); experiment: COX2(h) Eurofins-Cerep enzyme and uptake assay; details: Compound concentration 10.0 uM
[23] = molecular target: Urotensin-2 receptor (Homo sapiens) (UniProt Q9UKP6); experiment: UT (h) Eurofins-Cerep binding assay; design: ligand concentration 0.1 nM; details: filed as agonist, Compound concentration 10.0 uM
[24] = molecular target: GABA-A receptor; anion channel (Rattus norvegicus) (UniProt O09028+P15431+P18506+P18508+P19969+P20236+P23574+P23576+P28471+P28473+P30191+P62813+P63079+P63138+Q91ZM7+Q9ES14); experiment: Cl- channel (GABA-gated) Eurofins-Cerep binding assay; assay type: protein-complex assay; design: ligand concentration 3 nM; details: filed as antagonist, Compound concentration 10.0 uM
[25] = molecular target: T1, Alpha-1B adrenergic receptor (Homo sapiens) (UniProt P35368); experiment: Alpha1B (h) Eurofins-Cerep binding assay; design: ligand concentration 0.15 nM; details: filed as antagonist, Compound concentration 10.0 uM
T1 sequence (whole entry): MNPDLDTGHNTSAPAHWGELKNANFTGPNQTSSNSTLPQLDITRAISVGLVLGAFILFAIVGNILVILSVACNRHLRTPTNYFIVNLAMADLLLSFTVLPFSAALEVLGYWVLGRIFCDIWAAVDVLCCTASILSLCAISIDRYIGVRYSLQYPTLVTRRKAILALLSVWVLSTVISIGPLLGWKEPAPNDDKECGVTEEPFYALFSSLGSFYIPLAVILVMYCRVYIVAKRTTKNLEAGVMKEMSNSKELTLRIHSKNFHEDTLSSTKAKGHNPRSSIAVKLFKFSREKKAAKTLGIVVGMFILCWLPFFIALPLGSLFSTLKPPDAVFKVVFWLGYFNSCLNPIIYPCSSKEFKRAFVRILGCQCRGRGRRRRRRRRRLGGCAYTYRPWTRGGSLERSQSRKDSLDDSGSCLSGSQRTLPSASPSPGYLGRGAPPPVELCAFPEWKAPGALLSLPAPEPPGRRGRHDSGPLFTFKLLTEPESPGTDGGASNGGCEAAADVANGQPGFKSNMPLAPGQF

[26] = molecular target: Sodium- and chloride-dependent GABA transporter 1 (Rattus norvegicus) (UniProt P23978); experiment: GABA transporter Eurofins-Cerep binding assay; design: ligand concentration 10 nM; details: filed as antagonist, Compound concentration 10.0 uM
[27] = molecular target: Type-2 angiotensin II receptor (Homo sapiens) (UniProt P50052); experiment: AT2 (h) Eurofins-Cerep binding assay; design: ligand concentration 0.01 nM; details: filed as agonist, Compound concentration 10.0 uM
[28] = molecular target: Endothelin-1 receptor (Homo sapiens) (UniProt P25101); experiment: ETA (h) Eurofins-Cerep binding assay; design: ligand concentration 0.03 nM; details: filed as agonist, Compound concentration 10.0 uM
[29] = molecular target: Substance-P receptor (Homo sapiens) (UniProt P25103); experiment: NK1 (h) Eurofins-Cerep binding assay; design: ligand concentration 0.05 nM; details: filed as agonist, Compound concentration 10.0 uM
[30] = molecular target: Substance-K receptor (Homo sapiens) (UniProt P21452); experiment: NK2 (h) Eurofins-Cerep binding assay; design: ligand concentration 0.1 nM; details: filed as agonist, Compound concentration 10.0 uM
[31] = molecular target: B2 bradykinin receptor (Homo sapiens) (UniProt P30411); experiment: B2 (h) Eurofins-Cerep binding assay; design: ligand concentration 0.3 nM; details: filed as agonist, Compound concentration 10.0 uM
Sequence of B2 bradykinin receptor (Homo sapiens) (P30411 whole entry): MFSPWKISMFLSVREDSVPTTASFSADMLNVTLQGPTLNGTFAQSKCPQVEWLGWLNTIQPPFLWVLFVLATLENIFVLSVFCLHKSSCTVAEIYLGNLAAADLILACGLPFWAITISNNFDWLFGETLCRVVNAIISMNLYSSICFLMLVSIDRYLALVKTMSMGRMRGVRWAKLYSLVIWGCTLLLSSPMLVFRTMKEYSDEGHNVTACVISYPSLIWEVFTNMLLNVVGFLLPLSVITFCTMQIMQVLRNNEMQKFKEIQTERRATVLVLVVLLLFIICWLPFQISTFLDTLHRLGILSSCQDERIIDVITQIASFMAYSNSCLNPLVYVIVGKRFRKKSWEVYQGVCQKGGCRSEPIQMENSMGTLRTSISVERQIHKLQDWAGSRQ

Sequence of Vasoactive intestinal polypeptide receptor 1 (Homo sapiens) (P32241 whole entry): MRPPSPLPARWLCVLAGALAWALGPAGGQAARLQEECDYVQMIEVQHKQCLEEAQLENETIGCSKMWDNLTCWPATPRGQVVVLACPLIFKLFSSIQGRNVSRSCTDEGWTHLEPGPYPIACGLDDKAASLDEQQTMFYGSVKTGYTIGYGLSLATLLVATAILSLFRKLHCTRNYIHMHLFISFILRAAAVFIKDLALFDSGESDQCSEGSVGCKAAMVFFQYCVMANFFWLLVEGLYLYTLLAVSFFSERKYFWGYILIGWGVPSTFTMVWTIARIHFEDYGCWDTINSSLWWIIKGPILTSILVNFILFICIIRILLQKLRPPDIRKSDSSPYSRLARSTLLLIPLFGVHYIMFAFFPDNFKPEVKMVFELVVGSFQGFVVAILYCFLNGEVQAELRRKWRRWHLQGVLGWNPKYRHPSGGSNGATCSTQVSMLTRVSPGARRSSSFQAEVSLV
Sequence of cGMP-inhibited 3',5'-cyclic phosphodiesterase 3A (Homo sapiens) (Q14432 whole entry): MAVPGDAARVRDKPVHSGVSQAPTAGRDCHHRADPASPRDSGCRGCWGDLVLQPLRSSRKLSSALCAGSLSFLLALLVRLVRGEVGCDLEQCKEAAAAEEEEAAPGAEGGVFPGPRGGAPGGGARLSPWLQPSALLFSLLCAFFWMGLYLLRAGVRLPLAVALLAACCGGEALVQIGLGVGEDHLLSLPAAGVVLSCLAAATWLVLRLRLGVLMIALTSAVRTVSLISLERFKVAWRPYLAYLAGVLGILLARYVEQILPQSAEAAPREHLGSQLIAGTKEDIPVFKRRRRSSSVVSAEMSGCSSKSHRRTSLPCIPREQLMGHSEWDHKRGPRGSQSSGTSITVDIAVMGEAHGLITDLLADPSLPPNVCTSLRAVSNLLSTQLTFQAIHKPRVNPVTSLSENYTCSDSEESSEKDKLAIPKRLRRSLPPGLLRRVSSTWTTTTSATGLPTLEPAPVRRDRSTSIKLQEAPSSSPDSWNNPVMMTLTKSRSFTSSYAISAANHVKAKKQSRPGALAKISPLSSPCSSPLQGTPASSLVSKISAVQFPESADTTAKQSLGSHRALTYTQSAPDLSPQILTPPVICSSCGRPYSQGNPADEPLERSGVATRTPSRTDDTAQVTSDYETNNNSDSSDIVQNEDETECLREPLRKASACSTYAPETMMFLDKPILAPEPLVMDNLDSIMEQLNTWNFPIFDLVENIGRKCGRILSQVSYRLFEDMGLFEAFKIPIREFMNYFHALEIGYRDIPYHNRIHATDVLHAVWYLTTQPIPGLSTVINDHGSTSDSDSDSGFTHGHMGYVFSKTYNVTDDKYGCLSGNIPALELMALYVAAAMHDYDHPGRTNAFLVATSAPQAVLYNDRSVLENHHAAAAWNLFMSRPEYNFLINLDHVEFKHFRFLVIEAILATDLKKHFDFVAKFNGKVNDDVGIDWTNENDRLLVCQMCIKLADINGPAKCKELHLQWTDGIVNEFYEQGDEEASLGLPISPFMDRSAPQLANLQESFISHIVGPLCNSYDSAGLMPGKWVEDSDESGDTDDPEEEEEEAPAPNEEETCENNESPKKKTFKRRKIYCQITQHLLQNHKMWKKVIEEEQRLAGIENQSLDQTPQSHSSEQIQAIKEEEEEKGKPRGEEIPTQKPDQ
Sequence of 5-hydroxytryptamine receptor 7 (Homo sapiens) (P34969 whole entry): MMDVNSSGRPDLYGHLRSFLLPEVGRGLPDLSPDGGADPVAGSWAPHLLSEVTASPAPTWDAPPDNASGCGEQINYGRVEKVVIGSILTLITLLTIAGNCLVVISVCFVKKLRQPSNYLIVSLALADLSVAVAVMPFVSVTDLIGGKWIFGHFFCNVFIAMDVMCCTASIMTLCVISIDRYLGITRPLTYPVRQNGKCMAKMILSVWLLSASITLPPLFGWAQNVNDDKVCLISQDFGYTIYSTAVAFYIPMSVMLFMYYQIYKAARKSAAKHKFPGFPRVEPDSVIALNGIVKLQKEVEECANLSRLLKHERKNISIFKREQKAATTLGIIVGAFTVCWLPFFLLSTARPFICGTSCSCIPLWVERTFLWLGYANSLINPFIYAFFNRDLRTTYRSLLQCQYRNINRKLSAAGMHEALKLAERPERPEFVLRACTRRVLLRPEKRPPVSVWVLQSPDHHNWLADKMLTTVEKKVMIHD
Sequence of Type-2 angiotensin II receptor (Homo sapiens) (P50052 whole entry): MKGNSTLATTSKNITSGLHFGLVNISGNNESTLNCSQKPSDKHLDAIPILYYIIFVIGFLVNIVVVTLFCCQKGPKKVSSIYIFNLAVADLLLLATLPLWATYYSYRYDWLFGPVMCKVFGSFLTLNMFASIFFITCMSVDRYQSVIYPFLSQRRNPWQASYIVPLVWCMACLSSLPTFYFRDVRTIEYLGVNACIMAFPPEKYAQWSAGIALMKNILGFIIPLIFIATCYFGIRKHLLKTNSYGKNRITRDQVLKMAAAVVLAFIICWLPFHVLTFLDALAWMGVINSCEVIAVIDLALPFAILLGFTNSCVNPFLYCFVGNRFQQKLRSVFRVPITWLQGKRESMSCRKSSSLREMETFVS
Sequence of 5-hydroxytryptamine receptor 4 (Homo sapiens) (Q13639 whole entry): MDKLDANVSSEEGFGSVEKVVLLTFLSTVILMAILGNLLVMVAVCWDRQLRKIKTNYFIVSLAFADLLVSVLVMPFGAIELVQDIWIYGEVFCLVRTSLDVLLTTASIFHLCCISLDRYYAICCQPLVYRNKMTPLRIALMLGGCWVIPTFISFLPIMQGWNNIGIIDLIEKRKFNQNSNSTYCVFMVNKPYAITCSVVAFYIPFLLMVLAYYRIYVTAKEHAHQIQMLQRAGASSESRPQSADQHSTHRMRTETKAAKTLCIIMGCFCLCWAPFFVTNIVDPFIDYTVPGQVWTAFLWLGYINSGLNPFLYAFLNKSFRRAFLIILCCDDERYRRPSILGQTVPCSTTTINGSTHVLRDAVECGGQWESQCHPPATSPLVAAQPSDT
Sequence of Kappa-type opioid receptor (Homo sapiens) (P41145 whole entry): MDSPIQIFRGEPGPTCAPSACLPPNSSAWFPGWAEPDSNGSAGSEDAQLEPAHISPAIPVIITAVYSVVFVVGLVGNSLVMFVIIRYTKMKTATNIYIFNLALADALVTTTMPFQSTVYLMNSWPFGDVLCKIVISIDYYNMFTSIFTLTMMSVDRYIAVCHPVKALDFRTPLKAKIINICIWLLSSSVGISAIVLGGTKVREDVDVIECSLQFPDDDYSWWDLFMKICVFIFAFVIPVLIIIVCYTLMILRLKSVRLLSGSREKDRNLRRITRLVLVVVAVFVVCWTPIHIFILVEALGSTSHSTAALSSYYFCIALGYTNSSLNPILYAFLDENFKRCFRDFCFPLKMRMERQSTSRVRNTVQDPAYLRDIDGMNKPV
Sequence of Histamine H1 receptor (Homo sapiens) (P35367 whole entry): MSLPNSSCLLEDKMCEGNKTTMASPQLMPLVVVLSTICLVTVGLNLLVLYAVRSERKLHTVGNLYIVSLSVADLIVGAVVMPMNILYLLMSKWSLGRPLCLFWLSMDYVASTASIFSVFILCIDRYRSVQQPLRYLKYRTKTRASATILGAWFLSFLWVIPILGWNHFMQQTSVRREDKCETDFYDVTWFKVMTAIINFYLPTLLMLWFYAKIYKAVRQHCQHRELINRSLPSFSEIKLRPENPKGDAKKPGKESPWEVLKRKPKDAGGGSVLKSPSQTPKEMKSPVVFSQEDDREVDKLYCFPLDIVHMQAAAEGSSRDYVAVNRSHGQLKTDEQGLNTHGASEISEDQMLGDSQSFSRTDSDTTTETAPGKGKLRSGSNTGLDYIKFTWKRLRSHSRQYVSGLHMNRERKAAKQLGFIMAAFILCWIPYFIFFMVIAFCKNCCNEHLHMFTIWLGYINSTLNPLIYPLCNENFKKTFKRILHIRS
Sequence of Prostaglandin G/H synthase 2 (Homo sapiens) (P35354 whole entry): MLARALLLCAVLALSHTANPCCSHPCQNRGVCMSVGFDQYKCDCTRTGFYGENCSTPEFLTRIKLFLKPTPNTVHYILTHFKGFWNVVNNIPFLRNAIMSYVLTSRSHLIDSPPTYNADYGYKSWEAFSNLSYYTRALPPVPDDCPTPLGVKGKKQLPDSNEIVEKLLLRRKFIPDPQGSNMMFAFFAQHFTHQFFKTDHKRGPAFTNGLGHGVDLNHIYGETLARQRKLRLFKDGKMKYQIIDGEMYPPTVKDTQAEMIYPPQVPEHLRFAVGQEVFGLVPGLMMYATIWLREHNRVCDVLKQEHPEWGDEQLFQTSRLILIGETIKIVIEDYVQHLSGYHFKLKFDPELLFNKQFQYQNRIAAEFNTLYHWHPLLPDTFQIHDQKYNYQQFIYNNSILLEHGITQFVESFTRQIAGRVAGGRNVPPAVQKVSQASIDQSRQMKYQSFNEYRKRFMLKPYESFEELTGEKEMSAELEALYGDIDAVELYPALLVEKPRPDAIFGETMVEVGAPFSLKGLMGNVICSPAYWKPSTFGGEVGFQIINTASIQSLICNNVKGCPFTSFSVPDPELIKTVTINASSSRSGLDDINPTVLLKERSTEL
Sequence of Bcl-2-like protein 1 (Q07817 whole entry): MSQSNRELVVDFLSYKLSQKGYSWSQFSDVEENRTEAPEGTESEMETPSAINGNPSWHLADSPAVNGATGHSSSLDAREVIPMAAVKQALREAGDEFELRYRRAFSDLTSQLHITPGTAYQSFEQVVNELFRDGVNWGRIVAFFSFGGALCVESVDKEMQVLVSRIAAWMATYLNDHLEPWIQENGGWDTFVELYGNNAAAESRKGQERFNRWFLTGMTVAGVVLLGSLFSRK

Structure (SMILES) | % Inhibition of Control Values (Mean n=2) [1] [%] | % Inhibition of Control Specific Binding (Mean n=2) [2] [%] | % Inhibition of Control Specific Binding (Mean n=2) [3] [%] | % Inhibition of Control Specific Binding (Mean n=2) [4] [%] | % Inhibition of Control Specific Binding (Mean n=2) [5] [%] | % Inhibition of Control Specific Binding (Mean n=2) [6] [%] | % Inhibition of Control Specific Binding (Mean n=2) [7] [%] | inhibition at 90 min, 10 µM [8] [%] | IC50 (Bcl-2-like protein 1) | % Inhibition of Control Specific Binding (Mean n=2) [9] [%] | % Inhibition of Control Values (Mean n=2) [10] [%] | % Inhibition of Control Specific Binding (Mean n=2) [11] [%] | % Inhibition of Control Specific Binding (Mean n=2) [12] [%] | % Inhibition of Control Values (Mean n=2) [13] [%] | % Inhibition of Control Specific Binding (Mean n=2) [14] [%] | % Inhibition of Control Specific Binding (Mean n=2) [15] [%] | % Inhibition of Control Specific Binding (Mean n=2) [16] [%] | % Inhibition of Control Specific Binding (Mean n=2) [17] [%] | % Inhibition of Control Specific Binding (Mean n=2) [18] [%] | % Inhibition of Control Specific Binding (Mean n=2) [19] [%] | other results
CN(C)CC#Cc1ccc(OCCCc2sc(N3CCc4cccc(C(=O)Nc5nc6ccccc6s5)c4C3)nc2C(=O)O)c(F)c1 [A-1155463] | -17.3 | 12.5 | -1.8 | 13.5 | 34.4 | 27.1 | 33.8 | -21.8 | 0.55 nM (active) | 69.2 | 2 | 7.8 | 99.1 | 22.1 | 36.1 | 19.1 | 16.9 | 1.4 | 6.7 | -8.1 | inhibition at 60 min, 10 µM [20]: 74.5%; inhibition at 60 min, 10 µM [21]: 32.3%; % Inhibition of Control Values (Mean n=2) [22]: 62.2%; % Inhibition of Control Specific Binding (Mean n=2) [23]: 94.9%; % Inhibition of Control Specific Binding (Mean n=2) [24]: 9.9%; % Inhibition of Control Specific Binding (Mean n=2) [25]: 15.5%; % Inhibition of Control Specific Binding (Mean n=2) [26]: 17.3%; % Inhibition of Control Specific Binding (Mean n=2) [27]: 1.1%; % Inhibition of Control Specific Binding (Mean n=2) [28]: -2.2%; % Inhibition of Control Specific Binding (Mean n=2) [29]: 3.3%; % Inhibition of Control Specific Binding (Mean n=2) [30]: 25.6%; % Inhibition of Control Specific Binding (Mean n=2) [31]: -7%
O=C(Nc1nc2ccccc2s1)c1cccc2c1CN(c1nc(C(=O)O)c(CCOc3ccc(-n4ncc5cncnc54)cc3)s1)CC2 [A-1107969] | -7.5 | -0.4 | -12.1 | -0.4 | 17 | 13.5 | 60.3 | -2.2 | 270 nM (not active) | -9.3 | 12.6 | 2.8 | 98.2 | -17 | 6 | -1.6 | 11.4 | -0.4 | -4 | -8.2 | inhibition at 60 min, 10 µM [20]: 11.1%; inhibition at 60 min, 10 µM [21]: 3.3%; % Inhibition of Control Values (Mean n=2) [22]: 65.5%; % Inhibition of Control Specific Binding (Mean n=2) [23]: 62.2%; % Inhibition of Control Specific Binding (Mean n=2) [24]: 11.2%; % Inhibition of Control Specific Binding (Mean n=2) [25]: -4.7%; % Inhibition of Control Specific Binding (Mean n=2) [26]: -1.5%; % Inhibition of Control Specific Binding (Mean n=2) [27]: 1.5%; % Inhibition of Control Specific Binding (Mean n=2) [28]: -5.1%; % Inhibition of Control Specific Binding (Mean n=2) [29]: 8.7%; % Inhibition of Control Specific Binding (Mean n=2) [30]: 5.3%; % Inhibition of Control Specific Binding (Mean n=2) [31]: -20.2%
